# According to patent publication US8999691B2 (priority 2010, dated 2015):
# How the values were obtained:
# [1] = molecular target: Botryotinia fuckeliana glucose dehydrogenase (Bfu-GDH, SEQ ID NO:2) variant N176S (Botrytis cinerea, UniProt A0A384K3P1, N192S); settings: glucose 1-40 mM; pH 6.5; partially purified enzyme
# Procedure: (§1) Site-specific mutagenesis was carried out by the QuikChange™ method. In the QuikChange™ method, the pET30c-Bfu-GDH created in Example 1 was used as the template, and amplified by PCR with mutagenesis primers. Next, DpnI was added to the reaction mixture and incubated at 37° C. for 60 minutes to digest the template DNA, and E. coli DH5a was transformed. After culturing overnight in an LB agar culture (50 μg/mL kanamycin), the plasmid was extracted from randomly selected clones, and the sequence was analyzed to confirm that the target mutation was introduced. The resulting PCR products were NdeI and HindIII digested (37° C., 2 hours), ligated with the same restriction enzyme-digested pET30c, and E. coli BL21(DE3) was transformed. After culturing overnight In an LB agar medium (50 μg/mL kanamycin), the plasmid was extracted from randomly selected clones, and the sequence was analyzed to confirm the mutation.
# (§2) Transformants BL21(DE3) for expressing each of the modified enzymes were pre-cultured.
# [2] = molecular target: Botryotinia fuckeliana glucose dehydrogenase (Bfu-GDH, SEQ ID NO:2) variant G53A (Botrytis cinerea, UniProt A0A384K3P1, G69A); settings: glucose 1-40 mM; pH 6.5; partially purified enzyme
# Procedure: as §1, §2
# [3] = molecular target: Botryotinia fuckeliana glucose dehydrogenase (Bfu-GDH, SEQ ID NO:2) variant N176E (Botrytis cinerea, UniProt A0A384K3P1, N192E); settings: glucose 1-40 mM; pH 6.5; partially purified enzyme
# Procedure: as §1, §2
# [4] = molecular target: Botryotinia fuckeliana glucose dehydrogenase (Bfu-GDH, SEQ ID NO:2) variant G53A/S514G (Botrytis cinerea, UniProt A0A384K3P1, G69A/S530G); settings: glucose 1-40 mM; pH 6.5; partially purified enzyme
# Procedure: as §1, §2
# [5] = molecular target: Botryotinia fuckeliana glucose dehydrogenase (Bfu-GDH, SEQ ID NO:2) variant N176R (Botrytis cinerea, UniProt A0A384K3P1, N192R); settings: glucose 1-40 mM; pH 6.5; partially purified enzyme
# Procedure: as §1, §2
# [6] = molecular target: Botryotinia fuckeliana glucose dehydrogenase (Bfu-GDH, SEQ ID NO:2) variant S552C (Botrytis cinerea, UniProt A0A384K3P1, S568C); settings: glucose 1-40 mM; pH 6.5; partially purified enzyme
# Procedure: as §1, §2
# [7] = molecular target: Botryotinia fuckeliana glucose dehydrogenase (Bfu-GDH, SEQ ID NO:2) variant S514G (Botrytis cinerea, UniProt A0A384K3P1, S530G); settings: glucose 1-40 mM; pH 6.5; partially purified enzyme
# Procedure: as §1, §2
# [8] = molecular target: Botryotinia fuckeliana glucose dehydrogenase (Bfu-GDH, SEQ ID NO:2) variant N176K (Botrytis cinerea, UniProt A0A384K3P1, N192K); settings: glucose 1-40 mM; pH 6.5; partially purified enzyme
# Procedure: as §1, §2
# [9] = molecular target: Botryotinia fuckeliana glucose dehydrogenase (Bfu-GDH, FAD-GDH), wild type, SEQ ID NO:2 (Botrytis cinerea, UniProt A0A384K3P1); assay: Michaelis-Menten saturation kinetics with glucose (DCIP/PMS dehydrogenase assay); type: biochemical
# Description: as §2
# [10] = substrate: OC[C@H]1OC(O)[C@H](O)[C@@H](O)[C@@H]1O; assay: purified protein, by the assay type; type: biochemical, Aspergillus oryzae T1; settings: other: glucose, DCIP/PMS, pH 6.5, enzyme expressed 20° C./28 h
# Description: According to a prediction from the SignalP 3.0 Server, the region from the N-terminus to the Lys residue at the position 23 was predicted to be a signal peptide. A nucleotide sequence which encodes the amino acid sequence having the initiation methionine and the downstream sequence from the Asn residue at the position 24 was designed and totally synthesized. The amino acid sequence of the protein (referred to below as “Ao-GDH”) encoded by the gene thus obtained is shown in SEQ ID NO:4. E. coli BL21(DE3) (F—, ompT, hsdSB(rB- mB-), gal(λcI 857, ind1, Sam7, nin5, LacUV5-T7gene1), dcm(DE3): from Novagen) was used as the host for recombinant production. The gene expression vector used was pET30c (kan, LacI; from Novagen), and the chaperone co-expression vector used was pGro7 (GroEL, GroES; from TaKaRa).
# (§3) (10-fold dilution at a final concentration).
# [11] = substrate: OC[C@H]1OC(O)[C@H](O)[C@@H](O)[C@@H]1O; assay: purified protein, by the assay type; type: biochemical, Aspergillus oryzae T1; settings: other: glucose, DCIP/PMS, pH 6.5, enzyme expressed 20° C./28 h; remark: listed apart in the source
# Description: as §3
molecule,measurement,setting,value
OC[C@H]1OC(O)[C@H](O)[C@@H](O)[C@@H]1O (some centres unmarked) [glucose],Vmax (apparent maximum activity),[1],11.5 U/mg protein
same,Vmax (apparent maximum activity),[2],8.1 U/mg protein
same,Vmax (apparent maximum activity),[3],10.4 U/mg protein
same,Vmax (apparent maximum activity),[4],8.9 U/mg protein
same,Vmax (apparent maximum activity),[5],24.9 U/mg protein
same,Vmax (apparent maximum activity),[6],7.8 U/mg protein
same,Vmax (apparent maximum activity),[7],36.6 U/mg protein
same,Vmax (apparent maximum activity),[8],25.1 U/mg protein
same,Vmax,"[9]; Table 3 (unit not given), glucose",8.7
same,Vmax (apparent maximum activity),"[9]; glucose 1-40 mM, pH 6.5, partially purified enzyme",8.7 U/mg protein
"Aspergillus oryzae T1 glucose dehydrogenase (Ao-GDH, FAD-GDH), wild type, SEQ ID NO:4 (Aspergillus oryzae) (protein) MNTTTYDYIVVGGGTSGLVVANRLSENPDVSVLLLEAGASVFNNPDVTNANGYGLAFGSAIDWQYQSINQSYAGGKQQVLRAGKALGGTSTINGMAYTRAEDVQIDVWQKLGNEGWTWKDLLPYYLKSENLTAPTSSQVAAGAAYNPAVNGKEGPLKVGWSGSLASGNLSVALNRTFQAAGVPWVEDVNGGKMRGFNIYPSTLDVDLNVREDAARAYYFPYDDRKNLHLLENTTANRLFWKNGSAEEAIADGVEITSADGKVTRVHAKKEVIISAGALRSPLILELSGVGNPTILKKNNITPRVDLPTVGENLQDQFNNGMAGEGYGVLAGASTVTYPSISDVFGNETDSIVASLRSQLSDYAAATVKVSNGHMKQEDLERLYQLQFDLIVKDKVPIAEILFHPGGGNAVSSEFWGLLPFARGNIHISSNDPTAPAAINPNYFMFEWDGKSQAGIAKYIRKILRSAPLNKLIAKETKPGLSEIPATAADEKWVEWLKANYRSNFHPVGTAAMMPRSIGGVVDNRLRVYGTSNVRVVDASVLPFQVCGHLVSTLYAVAERASDLIKEDAKSA",Km,[10],44.7 mM
same,Vmax,[10],120 µmol/min/mg
"Aspergillus oryzae T1 glucose dehydrogenase (Ao-GDH, SEQ ID NO:4) variant G190C (Aspergillus oryzae; G212C) (protein) MNTTTYDYIVVGGGTSGLVVANRLSENPDVSVLLLEAGASVFNNPDVTNANGYGLAFGSAIDWQYQSINQSYAGGKQQVLRAGKALGGTSTINGMAYTRAEDVQIDVWQKLGNEGWTWKDLLPYYLKSENLTAPTSSQVAAGAAYNPAVNGKEGPLKVGWSGSLASGNLSVALNRTFQAAGVPWVEDVNCGKMRGFNIYPSTLDVDLNVREDAARAYYFPYDDRKNLHLLENTTANRLFWKNGSAEEAIADGVEITSADGKVTRVHAKKEVIISAGALRSPLILELSGVGNPTILKKNNITPRVDLPTVGENLQDQFNNGMAGEGYGVLAGASTVTYPSISDVFGNETDSIVASLRSQLSDYAAATVKVSNGHMKQEDLERLYQLQFDLIVKDKVPIAEILFHPGGGNAVSSEFWGLLPFARGNIHISSNDPTAPAAINPNYFMFEWDGKSQAGIAKYIRKILRSAPLNKLIAKETKPGLSEIPATAADEKWVEWLKANYRSNFHPVGTAAMMPRSIGGVVDNRLRVYGTSNVRVVDASVLPFQVCGHLVSTLYAVAERASDLIKEDAKSA",Km,[11],51.3 mM
same,Vmax,[11],119 µmol/min/mg
